From patent US10112929B2, “Lactams as inhibitors of rock” (BRISTOL-MYERS SQUIBB COMPANY, priority 2015, dated 2018)

Molecular target: ROCK2 (Homo sapiens (Human), UniProt O75116)
Experiment: biochemical
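Further: rho kinase enzyme reaction halted with EDTA, phospho- and non-phospho peptide separated for read-out, kinase activity inhibition derived across a dose-response series, DMSO under 2%.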

ROCK2, sequence (O75116 whole entry, species assumed): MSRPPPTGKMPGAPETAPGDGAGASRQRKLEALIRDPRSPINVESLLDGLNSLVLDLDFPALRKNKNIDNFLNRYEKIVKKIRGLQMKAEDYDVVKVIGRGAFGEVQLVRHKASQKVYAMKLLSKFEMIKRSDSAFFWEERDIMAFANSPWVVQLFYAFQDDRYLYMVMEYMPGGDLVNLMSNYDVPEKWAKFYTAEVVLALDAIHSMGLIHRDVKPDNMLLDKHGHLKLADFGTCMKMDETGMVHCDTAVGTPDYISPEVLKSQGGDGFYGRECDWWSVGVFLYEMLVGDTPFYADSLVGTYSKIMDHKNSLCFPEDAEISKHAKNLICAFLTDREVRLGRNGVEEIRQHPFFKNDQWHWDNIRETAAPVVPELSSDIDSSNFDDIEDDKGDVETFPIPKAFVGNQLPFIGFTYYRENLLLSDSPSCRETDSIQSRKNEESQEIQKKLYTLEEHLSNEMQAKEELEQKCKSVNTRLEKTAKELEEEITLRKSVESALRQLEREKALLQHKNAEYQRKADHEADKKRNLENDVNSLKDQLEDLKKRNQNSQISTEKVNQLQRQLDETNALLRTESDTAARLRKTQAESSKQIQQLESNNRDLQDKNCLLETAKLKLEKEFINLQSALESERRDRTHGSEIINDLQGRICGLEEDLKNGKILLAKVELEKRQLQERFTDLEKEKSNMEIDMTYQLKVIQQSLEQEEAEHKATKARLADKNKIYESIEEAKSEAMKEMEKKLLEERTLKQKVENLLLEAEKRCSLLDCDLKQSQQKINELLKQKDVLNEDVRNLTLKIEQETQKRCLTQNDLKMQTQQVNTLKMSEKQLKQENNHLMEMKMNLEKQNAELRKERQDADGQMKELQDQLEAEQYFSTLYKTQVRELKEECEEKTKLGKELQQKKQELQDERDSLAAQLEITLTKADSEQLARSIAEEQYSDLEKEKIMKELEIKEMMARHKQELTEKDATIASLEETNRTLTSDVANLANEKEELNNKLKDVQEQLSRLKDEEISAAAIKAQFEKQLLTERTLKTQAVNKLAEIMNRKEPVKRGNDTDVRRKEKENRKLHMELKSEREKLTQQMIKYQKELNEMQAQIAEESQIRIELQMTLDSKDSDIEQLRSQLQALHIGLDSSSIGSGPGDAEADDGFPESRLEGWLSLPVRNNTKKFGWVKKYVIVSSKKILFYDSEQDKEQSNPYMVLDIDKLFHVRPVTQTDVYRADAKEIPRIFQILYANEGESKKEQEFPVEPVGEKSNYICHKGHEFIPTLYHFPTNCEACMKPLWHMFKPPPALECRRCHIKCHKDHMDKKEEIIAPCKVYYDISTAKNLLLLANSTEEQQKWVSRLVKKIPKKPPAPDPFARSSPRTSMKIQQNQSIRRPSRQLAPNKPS

| Compound | IC50 |
| --- | --- |
| N#Cc1cccc(CC2CCN(c3ccc(-c4cn[nH]c4)cc3)C2=O)c1 (stereo not drawn) [Example 97, 3-((1-(4-(1H-pyrazol-4-yl)phenyl)-2-oxopyrrolidin-3-yl)methyl)benzonitrile] | 100 to 2200 nM |
| COc1cccc2c1N(C1CCN(c3ccc(-c4cn[nH]c4)cc3)C1=O)CC2 (single isomer, unassigned) [Example 52, 1-(4-(1H-pyrazol-4-yl)phenyl)-3-(7-methoxyindolin-1-yl)pyrrolidin-2-one] | 100 to 2200 nM |
| COc1cccc(C2CCN(c3ccc(-c4cn[nH]c4)cc3)C2=O)c1 (stereo not drawn) [Example 103, 1-(4-(1H-pyrazol-4-yl)phenyl)-3-(3-methoxyphenyl)pyrrolidin-2-one] | < 10 nM |
| CCc1nc(N2CCC(Nc3ccc(F)c(OC)c3)C2=O)ccc1-c1cn[nH]c1 (single isomer, unassigned) [Example 318, 1-(6-ethyl-5-(1H-pyrazol-4-yl)pyridin-2-yl)-3-((4-fluoro-3-methoxyphenyl)amino) pyrrolidin-2-one] | 10 to 100 nM |
| COc1cc(NC2CCN(c3ccc(-c4cn[nH]c4)c(OC)n3)C2=O)ccc1F (single isomer, unassigned) [Example 207, 3-((4-fluoro-3-methoxyphenyl)amino)-1-(6-methoxy-5-(1H-pyrazol-4-yl)pyridin-2-yl)pyrrolidin-2-one] | < 10 nM |
| COc1ccc(F)c(OC2CCN(c3ccc(-c4cn[nH]c4)cc3)C2=O)c1 (stereo not drawn) [Example 111, 1-(4-(1H-pyrazol-4-yl)phenyl)-3-(2-fluoro-5-methoxyphenoxy)pyrrolidin-2-one] | 10 to 100 nM |
| COc1cc(N2CCC(Nc3cccc(NS(C)(=O)=O)c3)C2=O)ccc1-c1cn[nH]c1 (stereo not drawn) [Example 73, N-(3-((1-(3-methoxy-4-(1H-pyrazol-4-yl)phenyl)-2-oxopyrrolidin-3-yl)amino)phenyl)methanesulfonamide] | 10 to 100 nM |
| CCc1cc(N2CCC(Nc3cccc(OC)c3)C2=O)ccc1-c1cn[nH]c1 (single isomer, unassigned) [Example 244, 1-(3-ethyl-4-(1H-pyrazol-4-yl)phenyl)-3-((3-methoxyphenyl)amino)pyrrolidin-2-one] | < 10 nM |
| COc1cccc(NC2CCN(c3cc(F)c(-c4cn[nH]c4)cc3F)C2=O)c1 (single isomer, unassigned) [Example 353, 1-(2,5-difluoro-4-(1H-pyrazol-4-yl)phenyl)-3-((3-methoxyphenyl)amino)pyrrolidin-2-one] | 10 to 100 nM |
| COc1cc(N2CCC(Nc3ccccc3)C2=O)ccc1-c1cn[nH]c1 (stereo not drawn) [Example 67, 1-(3-methoxy-4-(1H-pyrazol-4-yl)phenyl)-3-(phenylamino)pyrrolidin-2-one] | < 10 nM |
| COc1cccc(NC2CCN(c3ccc(-c4cn[nH]c4)c(OC(F)F)c3)C2=O)c1 (single isomer, unassigned) [Example 114, 1-(3-(difluoromethoxy)-4-(1H-pyrazol-4-yl)phenyl)-3-((3-methoxyphenyl)amino)pyrrolidin-2-one] | 10 to 100 nM |
| COc1cccc(NC2CCN(c3ccc(-c4cn[nH]c4)cn3)C2=O)c1 (single isomer, unassigned) [Example 85, 1-(5-(1H-pyrazol-4-yl)pyridin-2-yl)-3-((3-methoxyphenyl)amino)pyrrolidin-2-one] | < 10 nM |
| O=C1C(c2ccccc2Cl)CCN1c1ccc(-c2cn[nH]c2)cc1 (stereo not drawn) [Example 105, 1-(4-(1H-pyrazol-4-yl)phenyl)-3-(2-chlorophenyl)pyrrolidin-2-one] | 10 to 100 nM |
| COc1ccc(C(=O)OC2CCN(c3ccc(-c4cn[nH]c4)cc3)C2=O)c(N)c1 (racemic) [Example 327, 1-(4-(1H-pyrazol-4-yl)phenyl)-2-oxopyrrolidin-3-yl2-amino-4-methoxybenzoate] | 100 to 2200 nM |
| COc1cccc(NC2CCN(c3ccc(-c4cn[nH]c4)c(C(O)C(F)(F)F)c3)C2=O)c1 (racemic) [Example 348, 1-(4-(1H-pyrazol-4-yl)-3-(2,2,2-trifluoro-1-hydroxyethyl)phenyl)-3-((3-methoxyphenyl)amino)pyrrolidin-2-one] | 100 to 2200 nM |
| COc1cc(F)cc(NC2CCN(c3ncc(-c4cn[nH]c4)cc3F)C2=O)c1 (single isomer, unassigned) [Example 359, 1-(3-fluoro-5-(1H-pyrazol-4-yl)pyridin-2-yl)-3-((3-fluoro-5-methoxyphenyl)amino) pyrrolidin-2-one] | 100 to 2200 nM |
| COc1cc(F)cc(NC2CCN(c3ccc(-c4cn[nH]c4)cn3)C2=O)c1 (stereo not drawn) [Example 82, 1-(5-(1H-pyrazol-4-yl)pyridin-2-yl)-3-((3-fluoro-5-methoxyphenyl)amino)pyrrolidin-2-one] | < 10 nM |
| COc1nc(N2CCC(Nc3nc(C(C)(C)C)cs3)C2=O)ccc1-c1cn[nH]c1 (racemic) [Example 269, 3-((4-(tert-butyl)thiazol-2-yl)amino)-1-(6-methoxy-5-(1H-pyrazol-4-yl)pyridin-2-yl)pyrrolidin-2-one] | 100 to 2200 nM |

| Compound | IC50 |
| --- | --- |
| COc1cccc(OC2CCN(c3ccc(-c4cn[nH]c4)c(OC)n3)C2=O)c1 (single isomer, unassigned) [Example 170, 1-(6-methoxy-5-(1H-pyrazol-4-yl)pyridin 2-yl)-3-(3-methoxyphenoxy)pyrrolidin-2-one] | 10 to 100 nM |
| COc1cc(N2CCC(Nc3cccc(OC(F)(F)F)c3)C2=O)ccc1-c1cn[nH]c1 (stereo not drawn) [Example 70, 1-(3-methoxy-4-(1H-pyrazol-4-yl)phenyl)-3-((3-(trifluoromethoxy)phenyl)amino)pyrrolidin-2-one] | 100 to 2200 nM |
| CNc1nc(N2CCC(Nc3cc(F)cc(OC)c3)C2=O)ccc1-c1cn[nH]c1 (single isomer, unassigned) [Example 251, 3-((3-fluoro-5-methoxyphenyl)amino)-1-(6-(methylamino)-5-(1H-pyrazol-4-yl)pyridin-2-yl)pyrrolidin-2-one] | 10 to 100 nM |
| COc1c(F)cccc1NC1CCN(c2ccc(-c3cn[nH]c3)c(F)c2)C1=O (single isomer, unassigned) [Example 337, 3-((3-fluoro-2-methoxyphenyl)amino)-1-(3-fluoro-4-(1H-pyrazol-4-yl)phenyl) pyrrolidin-2-one] | 100 to 2200 nM |
| COc1cc(F)cc(OC2CCN(c3ccc(-c4cn[nH]c4)c(OC)n3)C2=O)c1 (single isomer, unassigned) [Example 173, 3-(3-fluoro-5-methoxyphenoxy)-1-(6-methoxy-5-(1H-pyrazol-4-yl)pyridin-2-yl)pyrrolidin-2-one] | < 10 nM |
| COc1cc(NC2CCN(c3ccc(-c4cn[nH]c4)c(F)c3)C2=O)ccc1F (single isomer, unassigned) [Example 332, 3-((4-fluoro-3-methoxyphenyl)amino)-1-(3-fluoro-4-(1H-pyrazol-4-yl)phenyl) pyrrolidin-2-one] | < 10 nM |
| COc1cccc(NC2CCN(c3ccc(-c4ccnc(N)n4)c(C)n3)C2=O)c1 (single isomer, unassigned) [Example 122, 1-(5-(2-aminopyrimidin-4-yl)-6-methylpyridin-2-yl)-3-((3-methoxyphenyl)amino) pyrrolidin-2-one] | 10 to 100 nM |
| COc1cc(NC2CCN(c3ccc(-c4cn[nH]c4)c(C)n3)C2=O)ccc1F (single isomer, unassigned) [Example 194, 3-((4-fluoro-3-methoxyphenyl)amino)-1-(6-methyl-5-(1H-pyrazol-4-yl)pyridin-2-yl)pyrrolidin-2-one] | 10 to 100 nM |
| Cc1nc(N2CCC(Nc3cccc(OCC4CC4)c3)C2=O)ccc1-c1cn[nH]c1 (single isomer, unassigned) [Example 190, 3-((3-(cyclopropylmethoxy)phenyl)amino)-1-(6-methyl-5-(1H-pyrazol-4-yl)pyridin-2-yl)pyrrolidin-2-one] | 10 to 100 nM |
| COc1nc(N2CCC(Nc3cccc(-c4nnn[nH]4)c3)C2=O)ccc1-c1cn[nH]c1 (racemic) [Example 266, 3-((3-(1H-tetrazol-5-yl)phenyl)amino)-1-(6-methoxy-5-(1H-pyrazol-4-yl)pyridin-2-yl)pyrrolidin-2-one] | 10 to 100 nM |
| COc1ccc(NC2CCN(c3ccc(-c4cn[nH]c4)cc3)C2=O)cc1F (single isomer, unassigned) [Example 13, 1-(4-(1H-Pyrazol-4-yl)phenyl)-3-((3-fluoro-4-methoxyphenyl)amino)pyrrolidin-2-one] | 100 to 2200 nM |
| COc1cccc(N(C)C2CCN(c3ccc(-c4cn[nH]c4)cc3)C2=O)c1 (single isomer, unassigned) [Example 30, 1-(4-(1H-pyrazol-4-yl)phenyl)-3-((3-methoxyphenyl)(methyl)amino)pyrrolidin-2-one] | 10 to 100 nM |
| CCc1cc(N2CCC(Nc3ccc(F)c(OC)c3)C2=O)ccc1-c1cn[nH]c1 (single isomer, unassigned) [Example 241, 1-(3-ethyl-4-(1H-pyrazol-4-yl)phenyl)-3-((4-fluoro-3-methoxyphenyl)amino) pyrrolidin-2-one] | 10 to 100 nM |
| CCc1cc(N2CCC(Nc3cc(F)cc(OC)c3)C2=O)ccc1-c1cn[nH]c1 (single isomer, unassigned) [Example 246, 1-(3-ethyl-4-(1H-pyrazol-4-yl)phenyl)-3-((3-fluoro-5-methoxyphenyl)amino) pyrrolidin-2-one] | < 10 nM |
| COc1cc(F)cc(NC2CCN(c3ccc(-c4cn[nH]c4)c(F)c3F)C2=O)c1 (single isomer, unassigned) [Example 310, 1-(2,3-difluoro-4-(1H-pyrazol-4-yl)phenyl)-3-((3-fluoro-5-methoxyphenyl)amino)pyrrolidin-2-one] | < 10 nM |
| COc1ccc(NC2CCN(c3ccc(-c4cn[nH]c4)cc3)C2=O)c(F)c1 (single isomer, unassigned) [Example 19, 1-(4-(1H-pyrazol-4-yl)phenyl)-3-((2-fluoro-4-methoxyphenyl)amino)pyrrolidin-2-one] | 100 to 2200 nM |
| COc1cc(F)cc(NC2CCN(c3ccc(-c4cn[nH]c4)c(C(F)(F)F)c3)C2=O)c1 (single isomer, unassigned) [Example 369, 1-(4-(1H-pyrazol-4-yl)-3-(trifluoromethyl)phenyl)-3-((3-fluoro-5-methoxyphenyl)amino)pyrrolidin-2-one] | 100 to 2200 nM |
| COc1cc(F)cc(NC2CCN(c3ccc(-c4cn[nH]c4)cc3F)C2=O)c1 (single isomer, unassigned) [Example 338, 1-(2-fluoro-4-(1H-pyrazol-4-yl)phenyl)-3-((3-fluoro-5-methoxyphenyl)amino) pyrrolidin-2-one] | 10 to 100 nM |
